Reference: patent US20030036518A1, “ARTIFICIAL POLYMERIC MEMBRANE STRUCTURE, METHOD FOR PREPARING SAME, METHOD FOR PREPARING THIS POLYMER, PARTICLE AND FILM CONTAINING THIS STRUCTURE” (priority 1996, published 2003)

How the values were obtained:
Assay type in all cases: physicochemical
[1] = Association of doxorubicin with small-size porous particles; conditions: 5 mg doxorubicin, 5 mg small-size porous particles, 2 h
Protocol: The procedure was as in example 10, but an attempt was made to prepare smaller sized porous particles. 1 g of SEPHADEX® C25 porous matrix was dispersed in 100 ml of distilled water and the preparation was ground for 15 min with a helical mill. The preparation was then centrifuged at 3000 g for 10 min and the supernatant was recovered and then subjected to further centrifuging at 25000 g for 45 min. The supernatant was removed, the cake was put back into suspension and 50 mg of a dry product were obtained following freeze-drying. The size of the particles obtained, measured by a particle analyzer, was between 300 and 500 nm.
5 mg of these small-size porous particles were dispersed in 5 ml of distilled water. 5 mg of doxorubicin were added and the whole was stirred for 2 h. The concentration of doxorubicin not associated with the particles was determined by ultrafiltration of an aliquot of the suspension through an ultrafiltration membrane of which the separation threshold was 50000, and the concentration of free doxorubicin was measured by UV spectrometry at 480 nm. […] These were then used as they were without supplementary purification.

[2] = Association of doxorubicin with porous particles; conditions: 5 mg doxorubicin hydrochloride, 5 mg SEPHADEX® C25, 2 h at 4° C.
Protocol: The overall procedure was as in example 7, but incorporating doxorubicin (C27H29NO11,PM543, 53) in place of haemoglobin, 5 mg of doxorubicin hydrochloride being dissolved in 1 ml of distilled water and incubated with 5 mg of porous particles (SEPHADEX® C25) substituted with carboxymethyl groups. The pore size of the particles was such that molecules with a maximum molecular weight of 25000 could penetrate. The suspension was stirred for 2 h at 4° C. with a planetary stirrer. It was then decanted and the free doxorubicin concentration was measured by UV spectrophotometry at 480 nm. […] The non-absorbed doxorubicin fraction was removed by decanting and washing the cake with distilled water.

[3] = Absorption of haemoglobin on the porous substrate; conditions: 20 mg haemoglobin, 5 mg SEPHADEX® SPC50, pH 6.5, 24 h at 4° C.
Protocol: 5 mg of porous particles (SEPHADEX® SPC50) with a diameter of 150 μm substituted with sulfopropyl groups and having a pore size sufficient to allow the penetration of molecules with a maximum molecular weight of 250000, were dispersed in 5 ml of a 10 mM bi-tri buffer, of pH 6.5 (where the haemoglobin is cationic and is attracted inside the anionic sites of the porous particles). 20 mg of haemoglobin, extracted from human erythrocytes by the lysis method in a hypotonic medium, were then added to this dispersion. The preparation was stirred for 24 h at 4° C. on a planetary stirrer. The particles were then decanted and the quantity present in the supernatant was determined by UV spectrometry at 410 nm. […] The non-absorbed haemoglobin was removed by decanting the particles and washing them with a 10 mM bi-tri buffer.

COc1cccc2c1C(=O)c1c(O)c3c(c(O)c1C2=O)C[C@@](O)(C(=O)CO)C[C@@H]3O[C@H]1C[C@H](N)[C@H](O)[C@H](C)O1 [doxorubicin]
doxorubicin associated with the particles [1]: more than 98%
doxorubicin associated with the particles [2]: more than 97%

haemoglobin: haemoglobin extracted from human erythrocytes by the lysis method in a hypotonic medium
haemoglobin present inside the particles [3]: more than 98%
